Source: US9926315B2, “Triazolopyridine compounds and methods for the treatment of cystic fibrosis” (Flatley Discovery Lab, LLC, priority 2014, dated 2018)
pEC50: −log10 of the molar value.

Target: T1, human ΔF508-CFTR (Homo sapiens, UniProt P13569, DEL508-508)
T1 construct: expressed in transfected cells
Assay: CFTR-YFP High Throughput Assay (HTS YFP flux assay, corrector / potentiator protocols)
Format: cell-based
Details: FRT cells stably expressing human ΔF508-CFTR and YFP-H148Q/I152L
Method: Assays for Detecting and Measuring the Effect of Compounds on dF508-CFTR Channels CFRT-YFP High Throughput Assay: Corrector Assay:
The following protocol is designed to selectively screen small molecule compounds for F508del CFTR corrector activities in the HTS YFP flux assay. In this protocol, the cells are incubated with testing compounds for 24 hours, washed with PBS, stimulated with forskolin and a standard potentiator, and read on a 384-well HTS plate reader, such as the Hamamatsu FDDD-6000.
(§1) YFP fluorescence intensity is acquired at high speed before and after iodide buffer is injected to the assay cells. Iodide enters the cells via active CFTR channels in the plasma membrane, and quenches the YFP fluorescence. The rate of fluorescence quenching is proportionally related to the total CFTR activities in the cell membrane. dF508-CFTR corrector accelerates YFP quenching by increasing the number of CFTR molecules in the testing cell plasma membrane.
This method was initially developed for bench top plate readers (Galietta, 2001), and was adapted to the HTS format (Sui, 2010).
Fisher Rat Thyroid (FRT) cells stably expressing both human ΔF508-CFTR and a halide-sensitive yellow fluorescent protein (YFP-H148Q/I152L 25, 22) (Galietta, 2001) were cultured on plastic surface in Coon's modified Ham's F12 medium supplemented with FBS 10%, L-glutamine 2 mM, penicillin 100 U/mL, and streptomycin 100 μg/mL. G418 (0.75-1.0 mg/mL) and zeocin (3.2 μg/mL) were used for selection of FRT cells expressing ΔF508-CFTR and YFP. For primary screening, FRT cells were plated into 384-well black wall, transparent bottom microtiter plates (Costar; Corning Inc.) at a cell density of 20, 000-40, 000 per well. Test compound was applied to the cells at varying concentrations ranging from 2 nM-[…] in either a 2-fold or 3-fold dilution series. Cells were incubated in a cell culture incubator at 37° C. with 5% CO2 for 24-26 h. Assay plates were washed with DPBS media (Thermo, cat#SH30028.02) to remove unbound cells and compound. Stimulation media (25 μL) containing 20 μM Forskolin & 30 μM P3 [6-(Ethyl-phenyl-sulfonyl)-4-oxo-1, 4-dihydro-quinoline-3-carboxylic acid 2-methoxy-benzylamide] in Hams F-12 coon's modified media was added to the plate wells and incubated at room temperature for 60-120 min. 25 μL of HEPES-PBS-I buffer (10 mM HEPES, 1 mM MgCl2, 3 mM KCl, 1 mM CaCl2, 150 mM NaI) was then added and fluorescence quench curves (Excitation 500 nm/Emission 540 nm; exposure 136 ms) were immediately recorded on an FDSS-6000 plate reader (Hamamatsu). Quench rates were derived from least squares fitting of the data (Sui, 2010).
The following protocol is designed to selectively screen small molecule compounds for F508del CFTR potentiator activities in the HTS YFP flux assay. In this protocol, the cells are incubated at 27° C. for 24 hours with homogeneously boosted dF508-CFTR expression in the cell membrane by the low temperature, washed with PBS, stimulated with forskolin, and read on a 384-well HTS plate reader, such as the Hamamatsu […].
as §1, with “dF508del-CFTR potentiators accelerate” for “dF508-CFTR corrector accelerates”, “increasing” for “increasing the number of”, “activities” for “molecules”
Fisher Rat Thyroid (FRT) cells stably expressing both human ΔF508-CFTR and a halide-sensitive yellow fluorescent protein (YFP-H148Q/I152L 25, 22) (Galietta, 2001) were cultured on plastic surface in Coon's modified Ham's F12 medium supplemented with FBS 10%, L-glutamine 2 mM, penicillin 100 U/mL, and streptomycin 100 μg/mL. G418 (0.75-1.0 mg/mL) and zeocin (3.2 μg/mL) were used for selection of FRT cells expressing ΔF508-CFTR and YFP. […]

T1 sequence (P13569 with tags, fused parts or gaps DEL508-508): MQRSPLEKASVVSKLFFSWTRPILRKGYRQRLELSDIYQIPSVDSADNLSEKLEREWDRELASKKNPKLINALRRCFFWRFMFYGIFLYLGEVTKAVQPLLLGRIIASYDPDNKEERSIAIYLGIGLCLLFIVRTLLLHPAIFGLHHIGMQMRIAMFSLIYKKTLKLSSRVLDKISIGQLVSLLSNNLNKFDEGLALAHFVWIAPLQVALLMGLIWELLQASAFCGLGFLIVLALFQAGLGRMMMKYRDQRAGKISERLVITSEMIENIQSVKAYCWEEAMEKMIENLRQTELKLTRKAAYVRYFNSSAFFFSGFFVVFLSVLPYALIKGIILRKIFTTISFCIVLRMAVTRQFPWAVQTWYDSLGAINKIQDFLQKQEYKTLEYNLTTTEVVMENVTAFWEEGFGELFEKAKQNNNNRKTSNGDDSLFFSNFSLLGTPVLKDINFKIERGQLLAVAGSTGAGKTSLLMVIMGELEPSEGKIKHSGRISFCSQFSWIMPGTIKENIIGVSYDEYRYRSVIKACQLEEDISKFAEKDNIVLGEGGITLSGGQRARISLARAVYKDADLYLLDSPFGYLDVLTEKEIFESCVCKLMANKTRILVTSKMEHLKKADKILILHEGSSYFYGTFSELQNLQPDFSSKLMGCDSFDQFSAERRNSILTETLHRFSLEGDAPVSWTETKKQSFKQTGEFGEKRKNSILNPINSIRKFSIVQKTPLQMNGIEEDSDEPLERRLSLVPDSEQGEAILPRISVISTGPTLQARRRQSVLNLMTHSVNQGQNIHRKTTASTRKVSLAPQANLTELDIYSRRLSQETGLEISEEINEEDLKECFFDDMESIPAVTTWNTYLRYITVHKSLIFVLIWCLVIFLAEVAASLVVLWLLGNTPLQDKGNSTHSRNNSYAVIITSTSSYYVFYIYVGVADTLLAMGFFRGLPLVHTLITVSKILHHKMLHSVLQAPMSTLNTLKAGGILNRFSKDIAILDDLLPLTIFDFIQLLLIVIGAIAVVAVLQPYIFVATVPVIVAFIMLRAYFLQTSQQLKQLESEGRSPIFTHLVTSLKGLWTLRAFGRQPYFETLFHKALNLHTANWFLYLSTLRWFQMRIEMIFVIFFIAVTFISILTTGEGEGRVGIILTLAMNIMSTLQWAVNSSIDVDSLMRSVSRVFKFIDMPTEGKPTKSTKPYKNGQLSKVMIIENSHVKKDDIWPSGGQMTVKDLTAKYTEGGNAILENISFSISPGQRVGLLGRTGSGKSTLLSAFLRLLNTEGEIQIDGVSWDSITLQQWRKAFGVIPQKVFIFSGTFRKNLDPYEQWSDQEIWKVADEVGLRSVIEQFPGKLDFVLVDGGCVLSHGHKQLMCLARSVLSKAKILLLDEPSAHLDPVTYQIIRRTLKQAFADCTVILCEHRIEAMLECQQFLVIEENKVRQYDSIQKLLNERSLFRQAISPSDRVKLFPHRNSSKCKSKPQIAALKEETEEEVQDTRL

pEC50: > 6.00
Emax (normalized to positive control, read-out: Emax (% Efficacy, EMax normalized to the positive control)): > 80%
Structure (SMILES): CCN(CC)S(=O)(=O)c1ccc2nnc(NCc3ccc(OC(C)C)cc3)n2c1 [Example 36]
